This note sets out measurements from patent publication US12331068B2, “Compositions and methods for inhibiting CD73” (Peloton Therapeutics, Inc., priority 2018, dated 2025).

The target of assay [1] is T1, Human CD73 (Homo sapiens, UniProt P21589).
T1 construct: purchased R&D Systems; host or cells: CHO cells
T1 sequence (P21589 27-549): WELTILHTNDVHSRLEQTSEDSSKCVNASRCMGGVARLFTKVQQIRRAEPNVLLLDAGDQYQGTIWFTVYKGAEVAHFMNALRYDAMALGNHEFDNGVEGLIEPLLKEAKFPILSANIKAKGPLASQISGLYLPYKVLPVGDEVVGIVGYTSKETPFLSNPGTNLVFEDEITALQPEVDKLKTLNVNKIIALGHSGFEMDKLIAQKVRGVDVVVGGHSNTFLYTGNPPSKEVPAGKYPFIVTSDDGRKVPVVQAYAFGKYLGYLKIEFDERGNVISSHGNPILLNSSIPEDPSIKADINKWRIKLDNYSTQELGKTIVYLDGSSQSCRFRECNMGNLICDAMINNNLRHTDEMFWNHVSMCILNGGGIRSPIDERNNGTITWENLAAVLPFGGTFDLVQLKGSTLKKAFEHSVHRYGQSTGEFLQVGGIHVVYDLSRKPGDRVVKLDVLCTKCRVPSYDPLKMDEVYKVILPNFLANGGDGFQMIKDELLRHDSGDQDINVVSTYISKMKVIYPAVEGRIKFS
The experiment in a line: CD73 Enzyme Assay (EnzChek PNP/MESG kinetic readout of AMP hydrolysis). Format: biochemical. The settings on record: 0.25 nM hCD73, 25 μM AMP; read-out: CD73 Enzyme Assay IC50. An outline of the steps: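 Compounds tested as 15-point, 3-fold dilution series (300 μM to 0.0002 μM) in DMSO. Kinetic absorbance at 360 nm read every minute for 10–20 min, initial velocity taken from the linear portion.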

Assay [2] has as its target T2, CD73 on U138 human neuroglioma cells (Homo sapiens, UniProt P21589).
T2 construct: U138 cells were obtained from ATCC and cultured in DMEM with 10% FBS; host or cells: U138 human neuroglioma cells
T2 sequence (P21589 27-549): T1 sequence (P21589 27-549)
The assay can be described thus: CD73 Cell-Based Assay (inorganic phosphate from AMP, malachite green). The settings on record: AMP substrate, 2 hours at 37° C., read-out: CD73 Cell-Based assay IC50. In a few lines: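 U138 cells, seeded the day before at 2500 per well, were washed and given AMP substrate (200 μM in the added mixture, before dilution into the buffer) together with compound. After 2 h at 37 °C in 5% CO2, inorganic phosphate in the supernatant was measured with malachite green.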

As to `C[C@H](Nc1c(C#N)c(Cl)nc2c1ncn2[C@@H]1O[C@H](COP(=O)(O)CP(=O)(O)O)[C@@H](O)[C@H]1O)c1ccccc1F` [Compound 242], the IC50 in assay [1] and in assay [2] was less than 10 nM in each case.
In the case of `N#Cc1c(Cl)nc2c(ncn2[C@@H]2O[C@H](COP(=O)(O)CP(=O)(O)O)[C@@H](O)[C@@H]2F)c1N1CCC(F)(F)C1` [Compound 97], the IC50 in assay [1] and in assay [2] was less than 10 nM throughout.
Turning to `C[C@@H](Nc1c(C#N)c(Cl)nc2c1ccn2[C@@H]1O[C@H](COP(=O)(O)CP(=O)(O)O)[C@@H](O)[C@H]1O)c1ccc(F)cc1` [Compound 34], the IC50 in assay [1] and in assay [2] was less than 10 nM in each case.
As to `N#Cc1c(Cl)nc2c(cnn2[C@@H]2O[C@H](COCP(=O)(O)O)[C@@H](O)[C@H]2O)c1N1C[C@@H](F)[C@H](F)C1` [Compound 80], the IC50 in assay [1] and in assay [2] was less than 10 nM throughout.
With `N#Cc1c(Cl)nc2c(ccn2[C@@H]2O[C@H](COCP(=O)(O)O)[C@@H](O)[C@H]2O)c1NC1CCCC1` [Compound 1, ((((2R,3S,4R,5R)-5-(6-chloro-5-cyano-4-(cyclopentylamino)-1H-pyrrolo[2,3-b]pyridin-1-yl)-3,4-dihydroxytetrahydrofuran-2-yl)methoxy)methyl)phosphonic acid], the IC50 in assay [1] and in assay [2] was less than 10 nM in each case.
On to `N#Cc1c(Cl)nc2c(ccn2[C@@H]2O[C@H](CS(=O)(=O)CP(=O)(O)O)[C@@H](O)[C@H]2O)c1NC1CC2(CC2)C1` [Compound 159], for which the IC50 in assay [1] and in assay [2] was less than 10 nM in each case.
With `C[C@H](Nc1c(C#N)c(Cl)nc2c1ncn2[C@@H]1O[C@H](COP(=O)(O)CP(=O)(O)O)[C@@H](O)[C@H]1O)c1ccc(F)cn1` [Compound 240], the IC50 in assay [1] and in assay [2] was less than 10 nM in each case.
Regarding `N#Cc1c(Cl)nc2c(ccn2[C@@H]2O[C@H](COCP(=O)(O)O)[C@@H](O)[C@H]2O)c1N1CC[C@H](F)C1` [Compound 60], the IC50 in assay [1] and in assay [2] was less than 10 nM throughout.
On to `C[C@@H](Nc1c(C#N)c(Cl)nc2c1ncn2[C@@H]1O[C@H](COP(=O)(O)CP(=O)(O)O)[C@@H](O)[C@H]1O)c1ccccc1F` [Compound 208, (((((2R,3S,4R,5R)-5-(5-chloro-6-cyano-7-(((R)-1-(2-fluorophenyl)ethyl)amino)-3H-imidazo[4,5-b]pyridin-3-yl)-3,4-dihydroxytetrahydrofuran-2-yl)methoxy)(hydroxy)phosphoryl)methyl)phosphonic acid], for which the IC50 in assay [1] and in assay [2] was less than 10 nM in each case.
`N#Cc1c(Cl)nc2c(ncn2[C@@H]2O[C@H](COCP(=O)(O)O)[C@@H](O)[C@H]2O)c1N1C[C@@H](F)[C@H](F)C1` [Compound 93]: the IC50 in assay [1] and in assay [2] was less than 10 nM in each case.
For `N#Cc1c(Cl)nc2c(ncn2[C@@H]2O[C@H](CS(=O)(=O)CP(=O)(O)O)[C@@H](O)[C@H]2O)c1NC1CCC(F)(F)CC1` [Compound 126], the IC50 in assay [1] and in assay [2] was less than 10 nM in each case.
Take `N#Cc1c(Cl)nc2c(cnn2[C@@H]2O[C@H](COCP(=O)(O)O)[C@@H](O)[C@H]2O)c1N1CC(F)(F)C1` [Compound 78]: the IC50 in assay [1] and in assay [2] was less than 10 nM each time.
For the compound `N#Cc1c(Cl)nc2c(ccn2[C@@H]2O[C@H](COCP(=O)(O)O)[C@@H](O)[C@H]2O)c1NC1CCC1` [Compound 9], the IC50 in assay [1] and in assay [2] was less than 10 nM in each case.
For `N#Cc1c(Cl)nc2c(ccn2[C@@H]2O[C@H](COCP(=O)(O)O)[C@@H](O)[C@H]2O)c1N1C[C@@H](F)[C@@H](F)C1` [Compound 67, ((((2R,3S,4R,5R)-5-(6-chloro-5-cyano-4-((3S,4R)-3,4-difluoropyrrolidin-1-yl)-1H-pyrrolo[2,3-b]pyridin-1-yl)-3,4-dihydroxytetrahydrofuran-2-yl)methoxy)methyl)phosphonic acid], the IC50 in assay [1] and in assay [2] was less than 10 nM each time.
As to `N#Cc1c(Cl)nc2c(cnn2[C@@H]2O[C@H](CS(=O)(=O)CP(=O)(O)O)[C@@H](O)[C@H]2O)c1N[C@H]1C[C@H](F)C1` [Compound 144, (((((2S,3S,4R,5R)-5-(6-chloro-5-cyano-4-(((1r,3R)-3-fluorocyclobutyl)amino)-1H-pyrazolo[3,4-b]pyridin-1-yl)-3,4-dihydroxytetrahydrofuran-2-yl)methyl)sulfonyl)methyl)phosphonic acid], the IC50 in assay [1] and in assay [2] was less than 10 nM each time.
`C[C@@H](Nc1c(C#N)c(Cl)nc2c1ccn2[C@@H]1O[C@H](COP(=O)(O)CP(=O)(O)O)[C@@H](O)[C@H]1O)c1ccc(C#N)cc1` [Compound 213]: the IC50 in assay [1] and in assay [2] was less than 10 nM each time.
For the compound `N#Cc1c(Cl)nc2c(ncn2[C@@H]2O[C@H](CS(=O)(=O)CP(=O)(O)O)[C@@H](O)[C@H]2O)c1NC1CC(F)C1` (stereo partly shown) [Compound 117], the half-inhibitory concentration (IC50) in assay [1] and in assay [2] was less than 10 nM in each case.
As to `C[C@H](Nc1c(C#N)c(Cl)nc2c1ccn2[C@@H]1O[C@H](CS(=O)(=O)CP(=O)(O)O)[C@@H](O)[C@H]1O)c1ccc(F)cc1` [Compound 18, (((((2S,3S,4R,5R)-5-(6-chloro-5-cyano-4-(((S)-1-(4-fluorophenyl)ethyl)amino)-1H-pyrrolo[2,3-b]pyridin-1-yl)-3,4-dihydroxytetrahydrofuran-2-yl)methyl)sulfonyl)methyl)phosphonic acid], the concentration for half-maximal inhibition (IC50) in assay [1] and in assay [2] was less than 10 nM each time.
On to `N#Cc1c(Cl)nc2c(cnn2[C@@H]2O[C@H](COCP(=O)(O)O)[C@@H](O)[C@H]2O)c1NC1CC(F)(F)C1` [Compound 81], for which the IC50 in assay [1] and in assay [2] was less than 10 nM in each case.
For the compound `N#Cc1c(Cl)nc2c(ccn2[C@@H]2O[C@H](CS(=O)(=O)CP(=O)(O)O)[C@@H](O)[C@H]2O)c1NC1CCC1` [Compound 19], the IC50 in assay [1] and in assay [2] was less than 10 nM each time.
With `N#Cc1c(Cl)nc2c(ccn2[C@@H]2O[C@H](CS(=O)(=O)CP(=O)(O)O)[C@@H](O)[C@@H]2F)c1N1CCC(F)(F)C1` [Compound 171], the 50% inhibitory concentration (IC50) in assay [1] and in assay [2] was less than 10 nM throughout.
Regarding `N#Cc1c(Cl)nc2c(ncn2[C@@H]2O[C@H](COCP(=O)(O)O)[C@@H](O)[C@H]2O)c1N1C[C@@H](F)[C@@H](F)C1` [Compound 92, ((((2R,3S,4R,5R)-5-(5-chloro-6-cyano-7-((3S,4R)-3,4-difluoropyrrolidin-1-yl)-3H-imidazo[4,5-b]pyridin-3-yl)-3,4-dihydroxytetrahydrofuran-2-yl)methoxy)methyl)phosphonic acid], the IC50 in assay [1] and in assay [2] was less than 10 nM each time.
On to `N#Cc1c(Cl)nc2c(ccn2[C@@H]2O[C@H](COP(=O)(O)CP(=O)(O)O)[C@@H](O)[C@H]2O)c1NC1CCOC1` (stereo partly shown) [Compound 224], for which the IC50 in assay [1] and in assay [2] was less than 10 nM throughout.
`N#Cc1nc2c(ccn2[C@@H]2O[C@H](CS(=O)(=O)CP(=O)(O)O)[C@@H](O)[C@H]2O)c(NC2CCC(F)(F)CC2)c1Cl` [Compound 137]: the IC50 in assay [1] and in assay [2] was less than 10 nM throughout.
Consider `N#Cc1c(Cl)nc2c(cnn2[C@@H]2O[C@H](COCP(=O)(O)O)[C@@H](O)[C@H]2O)c1N1CC2CC2C1` (stereo partly shown) [Compound 71], for which the IC50 in assay [1] and in assay [2] was less than 10 nM in each case.
Turning to `C[C@H](Nc1c(C#N)c(Cl)nc2c1ncn2[C@@H]1O[C@H](COP(=O)(O)CP(=O)(O)O)[C@@H](O)[C@H]1O)c1ccc(C#N)cc1` [Compound 227], the half-maximal inhibitory concentration (IC50) in assay [1] and in assay [2] was less than 10 nM throughout.
Regarding `C[C@@H](Nc1c(C#N)c(Cl)nc2c1cnn2[C@@H]1O[C@H](CS(=O)(=O)CP(=O)(O)O)[C@@H](O)[C@H]1O)c1ccccc1F` [Compound 183], the IC50 in assay [1] and in assay [2] was less than 10 nM throughout.
As for `N#Cc1c(Cl)nc2c(cnn2[C@@H]2O[C@H](CS(=O)(=O)CP(=O)(O)O)[C@@H](O)[C@H]2O)c1NC1CC2CC2C1` (stereo partly shown) [Compound 128], the IC50 in assay [1] and in assay [2] was less than 10 nM throughout.
In the case of `C[C@H](Nc1c(C#N)c(Cl)nc2c1ccn2[C@@H]1O[C@H](CS(=O)(=O)CP(=O)(O)O)[C@@H](O)[C@H]1O)c1cccc(C#N)c1` [Compound 190], the IC50 in assay [1] and in assay [2] was less than 10 nM in each case.
With `C[C@@H](Nc1c(C#N)c(Cl)nc2c1ccn2[C@@H]1O[C@H](COP(=O)(O)CP(=O)(O)O)[C@@H](O)[C@@H]1F)c1ccc(C#N)cc1` [Compound 239], the IC50 in assay [1] and in assay [2] was less than 10 nM each time.
For `N#Cc1nc2c(ccn2[C@@H]2O[C@H](COCP(=O)(O)O)[C@@H](O)[C@H]2O)c(N2CCC(F)(F)C2)c1C#N` [Compound 105], the IC50 in assay [1] and in assay [2] was less than 10 nM in each case.
Regarding `N#Cc1c(Cl)nc2c(ccn2[C@@H]2O[C@H](COC(CO)P(=O)(O)O)[C@@H](O)[C@H]2O)c1N1CC2CCCC2C1` (stereo partly shown) [Compound 51], the IC50 in assay [1] and in assay [2] was less than 10 nM in each case.
